In experiment [1] the test system is PU.1 URE−/− AML cells. The experiment is described as follows: Gene expression (transcriptome) analysis of PU.1 URE−/− AML cells. To be noted: by at least 1.2-fold. The class given is cell-based, murine. Here is the method: FIG. 3A-3G. Novel inhibitors show on-target PU.1 inhibitory activity. (A) Quantitative RT-PCR analysis of Csf1r, Junb, Sfpi1, E2f1 expression after 72 h (n=6) and, for Csf1r, after 1 h (n=3), 4 h (n=7), 8 h (n=3) and 24 h (n=3) of treatment with the small molecules in URE−/− cells, expression is normalized to GAPDH expression. Data represent means±SD of technical triplicate from one representative experiment; fold change compared to Vehicle is shown. (B) Chromatin immunoprecipitation assay showing PU.1 occupancy on E2f1, Junb, Csf1r promoters after treatment in Umsh cell line (n=5). 10·10^6 cells were collected for each condition after 8 h treatment with a double dose of the small molecules (50 uM for DB1976, 1.4 uM for DB2115 and 660 nM for DB2313) or Vehicle; and processed for ChIP using PU.1 monoclonal antibody. Myogenin was used as a negative control, not regulated by PU.1. Data represent means±SD of technical triplicate from one representative experiment. (C) Cell viability after PU.1 rescue in MOLM13 cells. MOLM13 were transduced with a lentiviral construct expressing either PU.1-GFP (PU.1, black bar) or GFP as a control (empty, white bar), sorted on GFP and plated with DB1976 (n=7), DB2115 (n=8), DB2313 (n=6) or Vehicle. Cell count was performed after 4 days. Data represent means±SD of technical triplicate from one representative experiment; fold change compared to Vehicle is shown. (D-G) Transcriptome analysis of URE−/− cells after 24 h of treatment with DB2313 versus vehicle (n=3). Differentially expressed genes were determined with a fold change at 1.2 and a P value <0.1. (D) Enrichment in genes directly regulated by PU.1 or in genes regulated by the other ETS transcription factors Ets1, Gabpa, Spi-B, Fli-1, using Ingenuity Knowledge Base. The red dotted line represents the significance threshold (−log (P value)>1.3). […] Deregulated gens in PUER cells were analyzed with a FC at 1.5 and P-value <0.05. […] P-value was calculated using the hypergeometric test. […]

Experiment [2] has as its system PU.1 URE−/− AML cells. Nature of the experiment: Transplantation of in vitro treated PU.1 URE−/− AML cells into sublethally irradiated mice. The experiment is classed as in vivo, mouse. The procedure:
FIG. 6A-6H. Treatment with PU1 inhibitors increases survival and decreases tumor burden in vivo. (A) Experimental scheme. URE−/− cells were treated in vitro with DB2313 or Vehicle and counted after 2 days of culture. 200·10^3 viable cells per mouse were injected retroorbitally into sublethally irradiated mice. Mice were sacrificed at 6 weeks or used for survival analyses. (B) Kaplan-Meier survival analysis of transplanted mice (x animals for vehicle group, xx for DB2313 group, from 2 independent experiments, p=). (C,D) Spleen and liver weight 6 weeks after transplant (8 animals for vehicle group, 7 for DB2313 group). Data represent means±SD, each mouse is represented by an individual dot. (E) Chimerism of URE−/− cells in the bone marrow 6 weeks after transplant (14 animals per group from 2 independent experiments).
To assess the effect of PU.1 inhibitors on AML in vivo, we treated PU.1 URE^−/− AML cells for 2 days in vitro and injected 2×10^5 viable cells in sublethally irradiated recipient mice (FIG. 6A).

The subject of experiment [3] is PU.1 URE−/− AML cells. Nature of the experiment: Colony forming capacity and serial replating of PU.1 URE−/− AML cells. The experiment is classed as cell-based, murine. The procedure:
FIG. 2A-2F. PU.1 inhibition decreases cell growth and increases apoptosis of PU.1^1″ leukemic cells. (A) Chemical structures of heterocyclic diamidines DB1976, DB2115 and DB2313 used in this study. (B) Relative cell viability of URE−/− cells and BAF3 cells after treatment with increasing concentrations of vehicle or small molecules. Cell viability was assessed after 48 h. Data represent means of technical triplicate from one representative experiment; fold change compared to Vehicle is shown. (C) Cell proliferation assay of URE−/− after treatment with DB1976 (n=5), DB2115 (n=3), DB2313 (n=3), of MOLM13 cells (n=3), and THP1 cells (n=3). Cell counting was performed every 24 h during 4 days. Data represent means±SD of technical triplicate from one representative experiment. Forward strand: SEQ ID NO:3, and Reverse strand: SEQ ID NO:4; derived from the λB motif from the murine Ig lambda 2-4 enhancer, a known native PU.1-dependent gene and specific binding site for PU.1. (D) Clonogenic capacities of URE−/− cells after treatment with DB1976 (n=5), DB2115 (n=3) and DB2313 (n=4) in the first plating, and after serial replatings (n=3). Data represent means±SD of technical triplicate from one representative experiment. (E) Apoptotic cells (Annexin-V+Dapi−) fraction in URE−/− cells after 48 h of treatment with DB1976 (n=6), DB2115 (n=6) and DB2313 (n=3). […]

The structures appear in SMILES notation. Structures can show the parent of a compound that is named as a salt.

Turning to `CC(C)NC(=N)c1ccc2nc(-c3ccc(OCc4cccc(COc5ccc(-c6nc7ccc(C(=N)NC(C)C)cc7[nH]6)cc5)c4F)cc3)[nH]c2c1` [DB2313, 3-Bis{4[4(5)-N-isopropylamidinobenzimidazolyl]phenoxymethyl]}-2-fluorobenzene tetrahydrochloride], in the experiment with PU.1 URE−/− AML cells [1], the “number of downregulated probe sets” value was found to be 781 probe sets and the “number of upregulated probe sets” value stood at 867 probe sets. For the same molecule, in the experiment with PU.1 URE−/− AML cells [1] (24 h), the “number of dysregulated transcripts (out of 34,472 total)” value worked out at 1648 transcripts. Also, the “mean chimerism, AML cell engraftment in the bone marrow” value in the experiment on PU.1 URE−/− AML cells [2] (6 weeks after transplant, vehicle 55%) was determined as 33%. For the same molecule, in the experiment with PU.1 URE−/− AML cells [2] (6 weeks post transplantation, vehicle 410 mg), the splenic mean weight was 243 mg. The liver mean weight in the experiment on PU.1 URE−/− AML cells [2] (6 weeks post transplantation, vehicle 2,347 mg) is 1,548 mg. Also, the “median latency (survival of recipient mice)” value in the experiment with PU.1 URE−/− AML cells [2] (cells treated 2 days in vitro, vehicle 44 days) was determined as 68 days. Moreover, in the experiment with PU.1 URE−/− AML cells [2] (in comparison to vehicle group), the “histology: blast infiltration and disruption of splenic architecture” value is on record as “significantly less pronounced effects”; the “infiltration of the liver by leukemic blasts” value is on record as “substantially reduced”. Moreover, in the experiment with PU.1 URE−/− AML cells [3], the “clonogenic capacity in serial replating, 4th and higher rounds of plating” value is on record as “complete disruption”; the “clonogenicity in serial replating, second and third rounds of plating” value is listed as “highly significant decrease”.

The values above are taken from patent US10774049B2, “PU.1 inhibitors” (Albert Einstein College of Medicine, priority 2016, dated 2020).
